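1) Cells in 96-well plates. 2) Compound, 48 h, 5 concentrations. 3) Linear interpolation between surrounding doses. 4) Unreached endpoint = highest concentration. The concentration for full growth arrest is given as TGI.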
Columns and labels:
Test in all cases: NCI anticancer screen, dose series, 48 h
[1] = tested on: RPMI-8226 leukemia
[2] = tested on: SF-268 CNS
[3] = tested on: SK-MEL-2 melanoma
[4] = tested on: SN12C renal
[5] = tested on: A549 NSCLC
[6] = tested on: NCI-H23 lung
[7] = tested on: NCI/ADR-RES ovarian
[8] = tested on: MOLT-4 leukemia
[9] = tested on: SR leukemia
[10] = tested on: HCT-116 colon
[11] = tested on: EKVX NSCLC
[12] = tested on: IGROV1 ovarian
[13] = tested on: ACHN renal
[14] = tested on: MDA-N
[15] = tested on: HCC-2998 colon
[16] = tested on: COLO 205 colon
[17] = tested on: HOP-62 NSCLC
[18] = tested on: KM12 colon
[19] = tested on: SW-620 colon
[20] = tested on: NCI-H460 lung
[21] = tested on: MCF7 breast
[22] = tested on: CAKI-1 renal
[23] = tested on: UACC-257 melanoma
[24] = tested on: HOP-92 NSCLC
[25] = tested on: MDA-MB-435
[26] = tested on: T-47D breast
[27] = tested on: HT29 colon
[28] = tested on: HS 578T breast
[29] = tested on: OVCAR-5 ovarian
[30] = tested on: K-562 leukemia
[31] = tested on: 786-0 renal
[32] = tested on: SK-MEL-5 melanoma
[33] = tested on: M14 melanoma
[34] = tested on: SK-MEL-28 melanoma
[35] = tested on: UO-31 renal
[36] = tested on: SNB-19 CNS
[37] = tested on: HCT-15 colon
[38] = tested on: SF-295 CNS
[39] = tested on: LOX IMVI melanoma
[40] = tested on: OVCAR-3 ovarian
[41] = tested on: OVCAR-8 ovarian
[42] = tested on: SF-539 CNS
[43] = tested on: PC-3 prostate
[44] = tested on: UACC-62 melanoma

Cc1ccc(-c2ccc(Nc3c4ccccc4nc4ccccc34)cc2)cn1 was tested, and the TGI [1] was 4.54 µM, the TGI [2] was greater than 100 µM and the TGI [3] was 3.63 µM. It also gave a TGI [4] of 15.3 µM, a TGI [5] of 10.3 µM and a TGI [6] of 88.7 µM. The TGI [7] was 65.6 µM, the TGI [8] was 3.59 µM and the TGI [9] was 6.56 µM. It also gave a TGI [10] of 10.3 µM, a TGI [11] greater than 100 µM and a TGI [12] of 18.4 µM. For the same molecule, the TGI [13] was 6.76 µM, the TGI [14] was 19.6 µM and the TGI [15] was 44.7 µM. It also gave a TGI [16] of 12.2 µM, a TGI [17] of 3.77 µM and a TGI [18] of 19.1 µM. The TGI [19] was 14.9 µM, the TGI [20] was 5.3 µM and the TGI [21] was 8.91 µM. For the same molecule, the TGI [22] was 9.02 µM, the TGI [23] was 28.5 µM and the TGI [24] was 3.28 µM. The TGI [25] was 16 µM, the TGI [26] was 5.44 µM and the TGI [27] was 4.75 µM. The TGI [28] was 58.3 µM, the TGI [29] was 69.5 µM and the TGI [30] was 10.7 µM. It also gave a TGI [31] of 3.42 µM, a TGI [32] of 16.5 µM and a TGI [33] of 11.2 µM. The TGI [34] was 9.18 µM, the TGI [35] was 13.2 µM and the TGI [36] was greater than 100 µM. The TGI [37] was 17.2 µM, the TGI [38] was 11.9 µM and the TGI [39] was 6.54 µM. It also gave a TGI [40] of 6.41 µM, a TGI [41] greater than 100 µM and a TGI [42] of 21.1 µM. The TGI [43] was 28.8 µM and the TGI [44] was 11.5 µM.
